Data on six compounds can be found in US6358973B1, “Benzazine derivatives as phosphodiesterase 4 inhibitors” (Zambon Group S.p.A., priority 1998, dated 2002).

In one data set the target is PDE 4 enzyme. The data set is described as follows: PDE 4 enzyme inhibition (SPA, Amersham kit). As to conditions: PDE 4 purified from human PMNs; cAMP 1 μM; 40 minutes at 30° C.; 9 concentrations. The class given is biochemical. From the text:
Evaluation of the PDE 4 Enzyme Inhibition a) Purification of Human Polymorphonucleate Leukocytes
The polymorphonucleate leukocytes (PMNs) were isolated from peripheral blood of healthy volunteers according to what described by Boyum A., Scand. J. Immunol., 1976, 5th suppl., 9). Shortly, the isolation of the PMNs was effected by Ficoll-Paque gradient centrifugation followed by sedimentation on dextrane and the erythrocyte contamination was eliminated by hypotonic lysis. […]
b) PDE 4 Enzyme Purification
The human PMNs were re-suspended in TRIS/HCl buffer (10 mM pH 7.8) containing MgCl2 (5 mM), EGTA (4 mM), mercaptoethanol (5 mM), TRITON-X100 (1%), pepstatin A (1 μM), PMSF (100 μM) and leupeptin (1 μM), and homogenised by Polytron. […]
The enzyme activity was evaluated with an Amersham kit based on the SPA (Scintillation Proximity Assay) technique. […] The radioactivity due to the particles was measured in a β-emitting counter. The results are expressed as percent activity versus the control present in each experiment. The IC50 values were calculated over 9 concentrations equidistant in logarithmic scale using a 4-parameters logistic function by software.

The structures appear in SMILES notation.

Usually IC50 stands for the point on the concentration scale where inhibition reaches its midpoint. Compound `COc1ccc2c(c1CC1CCCC1)CCN=C2Cc1c(Cl)cncc1Cl` [Compound 20, 5-Cyclopentylmethyl-1-(3,5-dichloro-pyridin-4-ylmethyl)-6-methoxy-3,4-dihydro-isoquinoline] returned an IC50 against PDE 4 enzyme of 35.9 ± 4.7 nM.
A word on the melting point: it is the temperature of the solid-liquid transition. `COc1ccc2c(c1)c(-c1ccccc1)cc(=O)n2Cc1c(Cl)cncc1Cl` [Compound 23, 1-(3,5-Dichloropyridin-4-ylmethyl)-6-methoxy-4-phenyl-1H-quinolin-2-one] returned a melting point of 191 to 192 °C.
On the same count and under the same terms, the same measure for `COc1ccc2c(c1)C(CCCCCCc1ccccc1)CN=C2Cc1c(Cl)cncc1Cl.Cl.Cl` (stereo not drawn): 135 to 137 °C (dec.); for `COc1ccc2c(c1)C(CC1CCCC1)CN=C2Cc1c(Cl)cncc1Cl.Cl.Cl` (stereo not drawn): 162 to 164 °C (dec.); for `COc1cccc2c1C(Cc1c(Cl)cncc1Cl)=NCC2CC1CCCC1.Cl.Cl` (stereo not drawn): 189 to 190 °C (dec.).
Turning to `COc1cccc2c1C(Cc1c(Cl)cncc1Cl)=NCC2CCCCCCc1ccccc1.Cl.Cl` (stereo not drawn), the melting point was 117 to 119 °C (dec.).
